≈ marks a conversion by molar mass, not a printed value. Like-named read-outs stand apart in the source and are kept apart here.
Assays:
A. niger ATCC 16404 [1] = assay: Minimum Inhibitory Concentration (MIC); type: cell-based; conditions: Aspergillus niger, ATCC16404
Text: (§1) In the different tests below the strains used were Pseudomonas aeruginosa DSM 939 (ATCC 15442), Staphylococcus aureus DSM 799 (ATCC 6538), Candida albicans DSM 1386 (ATCC 10231) and Aspergillus niger ATCC 16404.
(§2) 4.2.1) The nebulizers used were infected with different bacterial suspensions (S. aureus and P. aeruginosa) calibrated at 10^8 cfu/ml or fungal suspensions (C. albicans and A. niger) calibrated at 10^7 cfu/ml. In a preliminary set of experiments, values of Minimum Inhibitory Concentration (MIC) and Time Kill of squalamine and ASD 2 were determined against chosen reference bacteria and fungi (MIC only). […] A time of 20 minutes was defined to carry out nebulizer disinfection using squalamine whilst korsolex PAA and the 2% solution of glutaraldehyde were used for a time of 15 minutes following the manufacturers' instructions to obtain disinfecting properties. At a first attempt, it was able to be shown that the use of a dose of 80 mg/ml squalamine or ASD-2 for 20 minutes leads to a 2- and 3-log reduction for bacteria whilst a 2-log reduction for C. albicans was only obtained when using a concentration of squalamine or ASD-2 of 190 mg/ml. […] Nonetheless, squalamine and ASD 2 used at a concentration stronger than 0.5 g/l are capable of obtaining a 5-log10 reduction in viable cells of bacteria such as S. aureus, P. aeruginosa and a 4-log10 reduction for fungi such as C. albicans with a cycle of 20 min (FIG. 2A). On the other hand, for A. niger, the concentration enabling a fungicidal effect to be obtained (i.e. not only fungistatic but additionally with spore eradication) was higher than for the bacteria and over a longer time (2 g/l for 6 hours) (FIG. 2B).

P. aeruginosa DSM 939 [2] = assay: Minimum Inhibitory Concentration (MIC); type: cell-based; conditions: Pseudomonas aeruginosa, DSM939
Text: as §1, §2

C. albicans DSM 1386 [3] = assay: Minimum Inhibitory Concentration (MIC); type: cell-based; conditions: Candida albicans, DSM1386
Text: as §1, §2

S. aureus DSM 799 [4] = assay: Minimum Inhibitory Concentration (MIC); type: cell-based; conditions: Staphylococcus aureus, DSM799
Text: as §1, §2

[5] = Cutaneous toxicity on the backs of shaven mice; type: in vivo; conditions: concentrations in aqueous solution of 2 000
Text: Cutaneous toxicity was examined over a period of 15 days by applying a squalamine ointment onto the backs of shaven mice (batch of 10 mice).

A. niger = conditions: in vitro, within 24 hours; cited from earlier work
[6] = tested on: Staphylococcus aureus DSM 799 (ATCC 6538); assay: Disinfecting antibacterial action on infected nebulizer as per standard FR-EN 1040; type: cell-based; conditions: aqueous solution 0.5 g/l, within 1 hour
Description: as §1
(§3) The microbial contamination of nebulizers was obtained in vitro by soaking the inner part of nebulizers (Pari LC, SPRINT SP, Pari, Germany) in a bacterial suspension prepared in Mueller Hinton broth containing 1·10^8 to 5·10^8 cfu/mL of bacteria. Disinfection was performed by soaking this same part in a solution of sterile water containing squalamine for 1 h at a determined concentration of 0.5 g/L for the bacteria under consideration (S. aureus or P. aeruginosa). The nebulizer was then rinsed with two successive sterile water solutions. The bacterial count was performed on the second wash bath on Tryptone Soya Agar (24 h).

[7] = tested on: Pseudomonas aeruginosa DSM 939 (ATCC 15442); assay: as above; type: cell-based; conditions: aqueous solution 0.5 g/l, within 1 hour
Description: as §1, §3

A. niger ATCC 16404 [8] = assay: In vitro model of nebulizer disinfection with aqueous solution; type: cell-based, Aspergillus niger; conditions: for log reduction in viable cells of A. niger: 2 g/l, within 6 hours; for concentration enabling a fungicidal effect (with spore eradication) on A. niger: 6 hours; for dose needed to ensure nebulizer disinfection: A. niger ATCC 16404; for decrease for A. Niger: first attempt, 80 to 190 mg/ml, 20 minutes
Text: as §1
(§4) Nebulizers of Pari LC type were infected with bacteria (S. aureus and P. aeruginosa) via a suspension calibrated at 10^8 cfu/ml, and with fungi (C. albicans and A. niger) via a suspension calibrated at 10^7 cfu/ml. These nebulizers were then disinfected by soaking in a squalamine solution for 20 min, Glutaraldehyde and korsolex (peracetic acid) being used as inhibition control.
(§5) The microbial contamination of the nebulizer was obtained in vitro by soaking the inner part of the nebulizer (Pari LC, SPRINT SP, Pari, Germany) in a bacterial suspension prepared in Mueller Hinton broth containing 1·10^8 to 5·10^8 cfu/ml of bacteria (NF EN 1040, 1997) for 20 minutes. Disinfection was obtained by soaking this same part in a sterile water solution containing squalamine or ASD 2 for […] at the determined concentration in relation to the bacteria under consideration. For the fungi, suspensions of 1·10^7 to 5·10^7 cfu/ml (NF EN 1275, 1997) were prepared in Sabouraud broth and after incubation the nebulizer was soaked in sterile water containing squalamine or ASD 2. The nebulizer was then rinsed with two successive solutions of sterile water. The bacterial or fungal count was performed on the second wash bath. The counting of bacterial or fungal colonies was conducted on Tryptone Soya Agar for 24 hours for bacterial growth and on malt extract agar-agar for fungi at 37° C. for 48 hours.
(§6) The bactericidal and fungicidal test was performed three times in independent experiments and each bacterium and mould was evaluated separately. The concentration of squalamine and ASD 2 was increased until the required bactericidal and fungicidal activity was obtained. The disinfection time was set at 20 minutes for the first case and subsequently extended to 6 hours for A. Niger.

C. albicans DSM 1386 [9] = assay: as above; type: cell-based, Candida albicans; conditions: for log reduction for C. albicans: 190 mg/ml; for log reduction in viable cells of C. albicans: 0.5 g/l, 20 minutes; for dose needed to ensure nebulizer disinfection: C. albicans DSM 1386
Text: as §1, §4, §5, §6

S. aureus = conditions: topical lipophilic formulation, 0.5 to 5 mg/ml, 10^6 cfu/ml, cited from earlier work
P. aeruginosa DSM 939 [10] = assay: In vitro model of nebulizer disinfection with aqueous solution; type: cell-based, Pseudomonas aeruginosa; conditions: for log reduction for bacteria (P. aeruginosa): 80 mg/ml; for log reduction for bacteria (P. aeruginosa) / log reduction in viable cells of P. aeruginosa: 20 minutes; for log reduction in viable cells of P. aeruginosa: 0.5 g/l; for dose needed to ensure nebulizer disinfection: P. aeruginosa DSM 939
Text: as §1, §4, §5, §6

[11] = tested on: Candida albicans DSM 1386 (ATCC 10231); assay: Disinfecting antifungal activity on infected nebulizer as per standard FR-EN 1275; type: cell-based; conditions: aqueous solution 0.5 g/l, 1 h
Description: as §1
Nebulizer contamination with fungi was obtained in vitro by soaking the inner part of nebulizers (Pari LC, SPRINT SP, Pari, Germany) in 1·10^7 fungi suspension at 5·10^7 cfu/mL prepared in Sabouraud broth. After incubation the nebulizer was soaked in sterile water containing squalamine at the determined concentrations in relation to the fungal strains under consideration (i.e. 0.5 g/L for C. albicans (1 hour soaking) and 2 g/l for A. niger (6 h soaking). The nebulizer was then rinsed with two successive solutions of sterile water. The fungal count was performed on the second wash bath. The count of fungal colonies was performed on malt extract agar-agar (48 h).

[12] = tested on: Aspergillus niger ATCC 16404; assay: as above; type: cell-based; conditions: for log reduction of viable spore cells of A. Niger: 2 g/l, 6 hours; for log reduction in viable cells of A. niger: aqueous solution 0.5 g/l, 1 h
Description: as §1
Nebulizer contamination with fungi was obtained in vitro by soaking the inner part of nebulizers (Pari LC, SPRINT SP, Pari, Germany) in 1·10^7 fungi suspension at 5·10^7 cfu/mL prepared in Sabouraud broth. After incubation the nebulizer was soaked in sterile water containing squalamine at the determined concentrations in relation to the fungal strains under consideration (i.e. […] The nebulizer was then rinsed with two successive solutions of sterile water. The fungal count was performed on the second wash bath. The count of fungal colonies was performed on malt extract agar-agar (48 h).

S. aureus DSM 799 [13] = assay: In vitro model of nebulizer disinfection with aqueous solution; type: cell-based, Staphylococcus aureus; conditions: for log reduction for bacteria (S. aureus): 80 mg/ml; for log reduction for bacteria (S. aureus) / log reduction in viable cells of S. aureus: 20 minutes; for log reduction in viable cells of S. aureus: 0.5 g/l; for dose needed to ensure nebulizer disinfection: S. aureus DSM 799
Text: as §1, §4, §5, §6

[14] = Effect on plastic or metallic material (corrosion)
spores of A. Niger = conditions: acid glutaraldehyde 0.5%; within 100 minutes; cited from earlier work

Row | SMILES | MIC (A. niger ATCC 16404 [1]) [µg/mL] | MIC (P. aeruginosa DSM 939 [2]) [µg/mL] | MIC (C. albicans DSM 1386 [3]) [µg/mL] | MIC (S. aureus DSM 799 [4]) [µg/mL] | log reduction of viable cells of S. aureus [6] [log] | log reduction of viable cells of P. aeruginosa [7] [log] | log reduction in viable cells of A. niger (A. niger ATCC 16404 [8]) [log] | concentration enabling a fungicidal effect (with spore eradication) on A. niger (A. niger ATCC 16404 [8]) [g/L] | dose needed to ensure nebulizer disinfection (A. niger ATCC 16404 [8]) [mg/L] | decrease for A. Niger (A. niger ATCC 16404 [8]) | log reduction for C. albicans (C. albicans DSM 1386 [9]) [log] | log reduction in viable cells of C. albicans (C. albicans DSM 1386 [9]) [log] | dose needed to ensure nebulizer disinfection (C. albicans DSM 1386 [9]) [mg/L] | log reduction for bacteria (P. aeruginosa) (P. aeruginosa DSM 939 [10]) [log] | log reduction in viable cells of P. aeruginosa (P. aeruginosa DSM 939 [10]) [log] | dose needed to ensure nebulizer disinfection (P. aeruginosa DSM 939 [10]) [mg/L] | log reduction in viable cells of C. albicans [11] [log] | log reduction of viable spore cells of A. Niger [12] [log] | log reduction in viable cells of A. niger [12] [log] | log reduction for bacteria (S. aureus) (S. aureus DSM 799 [13]) [log] | further results
1 | CC(C)[C@@H](CC[C@@H](C)[C@H]1CCC2C3C(CC[C@@]21C)[C@@]1(C)CC[C@H](NCCCNCCCCN)CC1C[C@H]3O)OS(=O)(=O)O (stereo partly drawn) [squalamine] | 16 (≈ 25.5 µM) | 4 (≈ 6.37 µM) | 16 (≈ 25.5 µM) | 2 (≈ 3.18 µM) | 8 | 8 | 4 | 2 | 2000 | no significant decrease | 2 | 4 | 500 | 3 | 5 | 130 | 6 | 4 | 6 | 2 | cutaneous toxicity [5]: do not cause cutaneous toxicity; log reduction of A. niger (A. niger): 4 log; log reduction of S. aureus (S. aureus; within 24 hours): 4 log; log reduction of S. aureus (S. aureus; within 48 hours): 5 log; log reduction of spores ([12]; aqueous solution of 2 g/l): 4 log; log reduction in viable cells of S. aureus (S. aureus DSM 799 [13]): 5 log; dose needed to ensure nebulizer disinfection (S. aureus DSM 799 [13]): 210 mg/L; degradation of the equipment treated and/or in contact with the product [14]: do not induce any degradation
2 | O=CCCCC=O [acid glutaraldehyde, glutaraldehyde] | – | – | – | – | – | – | – | – | – | – | – | – | – | – | – | – | – | – | – | – | log reduction in the number of spores of A. Niger (spores of A. Niger): 1 log
3 | CC(C)CCC[C@@H](C)[C@H]1CCC2C3C(CC[C@@]21C)[C@@]1(C)CC[C@H](O)CC1C[C@@H]3NCCCCN (stereo partly drawn) [ASD 2] | 8 (≈ 16.8 µM) | 8 (≈ 16.8 µM) | 8 (≈ 16.8 µM) | 2 (≈ 4.21 µM) | 8 | 8 | 4 | 2 | 2000 | no significant decrease | 2 | 4 | 500 | 3 | 5 | 130 | 6 | 4 | 6 | 2 | log reduction in viable cells of S. aureus (S. aureus DSM 799 [13]): 5 log; dose needed to ensure nebulizer disinfection (S. aureus DSM 799 [13]): 210 mg/L
